Like-named read-outs stand apart in the source and are kept apart here.

One experiment has as its system Kp-2H7. In words: Kp-2H7 antibiotic susceptibility (MIC / growth in presence of antibiotics). The settings on record: for resistance of Kp-2H7 to antibiotic: FIG. 11 and Table 12, culture 37° C. 24 hours, absorbance 630 nm. The experiment is classed as cell-based, Klebsiella pneumoniae. How it is done: The bacterium growths were determined based on the absorbance measurement at a wavelength of 630 nm.

The test system of a further experiment is Ka-11E12. In words: Ka-11E12 antibiotic susceptibility (MIC / growth in presence of antibiotics). Format: cell-based, Klebsiella aeromobilis. Conditions: against Ka-11E12, Table 14. As for the experimental part:
FIG. 36 is a graph for analyzing the Ka-11E12 growths in the presence of antibiotics. Ka-11E12 was cultured in a 96-well plate in the presence of different concentrations of the antibiotics at 37° C. for 24 hours. The bacterium growths were determined based on the absorbance measurement at a wavelength of 630 nm. Each data represents the mean±standard deviation based on the results of at least three independent experiments.

[1] abbreviates: Klebsiella pneumoniae, 24 h, read-out: MIC.
[2] abbreviates: Klebsiella, 24 h, read-out: MIC.

By MIC is commonly meant the least concentration at which growth counts as inhibited. For `NCC[C@H](O)C(=O)N[C@@H]1C[C@H](N)[C@@H](O[C@H]2O[C@H](CN)[C@@H](O)[C@H](O)[C@H]2O)[C@H](O)[C@H]1O[C@H]1O[C@H](CO)[C@@H](O)[C@H](N)[C@H]1O` [Amikacin], the minimal inhibitory concentration (MIC) in the experiment on Kp-2H7 (setting [1]) and in the experiment on Ka-11E12 (setting [2]) was ≤ 8 µg/mL each time.

With `CC1(C)S[C@@H]2[C@H](NC(=O)[C@H](N)c3ccccc3)C(=O)N2[C@H]1C(=O)O` [Ampicillin], the MIC in the experiment on Kp-2H7 (setting [1]) and in the experiment with Ka-11E12 (setting [2]) was > 16 µg/mL throughout.

With `C[C@H]1[C@H](NC(=O)/C(=N\OC(C)(C)C(=O)O)c2csc(N)n2)C(=O)N1S(=O)(=O)O` [Aztreonam], the MIC in the experiment on Kp-2H7 (setting [1]) and in the experiment on Ka-11E12 (setting [2]) was ≤ 1 µg/mL each time.

As for `N[C@@H](C(=O)N[C@@H]1C(=O)N2C(C(=O)O)=C(Cl)CS[C@H]12)c1ccccc1` [Cefaclor], the MIC in the experiment on Kp-2H7 (setting [1]) is ≤ 4 µg/mL; in the experiment with Ka-11E12 (setting [2]) it was 8 µg/mL.

For the compound `Cc1nnc(SCC2=C(C(=O)O)N3C(=O)[C@@H](NC(=O)Cn4cnnn4)[C@H]3SC2)s1` [Cefazolin], the MIC in the experiment on Kp-2H7 (setting [1]) was 1 µg/mL; with Ka-11E12 (setting [2]) it was > 4 µg/mL.

Regarding `CO[C@@]1(NC(=O)CSCC#N)C(=O)N2C(C(=O)O)=C(CSc3nnnn3C)CS[C@@H]21` [Cefmetazole], the minimal inhibitory concentration (MIC) in the experiment with Kp-2H7 (setting [1]) was ≤ 8 µg/mL; in the experiment with Ka-11E12 (setting [2]), 16 µg/mL.

Take `CO/N=C(\C(=O)N[C@@H]1C(=O)N2C(C(=O)O)=C(COC(C)=O)CS[C@H]12)c1csc(N)n1` [Cefotaxime]: the MIC in the experiment on Kp-2H7 (setting [1]) and with Ka-11E12 (setting [2]) was ≤ 0.5 µg/mL throughout.

With `CN(C)CCn1nnnc1SCC1=C(C(=O)O)N2C(=O)[C@@H](NC(=O)Cc3csc(N)n3)[C@H]2SC1` [Cefotiam], the MIC in the experiment with Kp-2H7 (setting [1]) and with Ka-11E12 (setting [2]) was ≤ 0.5 µg/mL throughout.

As to `CO/N=C(\C(=O)N[C@@H]1C(=O)N2C(C(=O)[O-])=C(C[n+]3cccc4c3CCC4)CS[C@H]12)c1csc(N)n1` [Cefpirome], the MIC in the experiment on Kp-2H7 (setting [1]) and in the experiment on Ka-11E12 (setting [2]) was ≤ 4 µg/mL in each case.

Turning to `COCC1=C(C(=O)OC(C)OC(=O)OC(C)C)N2C(=O)[C@@H](NC(=O)/C(=N\OC)c3csc(N)n3)[C@H]2SC1` (some centres unmarked) [Cefpodoxime-Proxetil], the MIC with Kp-2H7 (setting [1]) and in the experiment with Ka-11E12 (setting [2]) was ≤ 1 µg/mL each time.

Regarding `CC(C)(O/N=C(\C(=O)N[C@@H]1C(=O)N2C(C(=O)[O-])=C(C[n+]3ccccc3)CS[C@H]12)c1csc(N)n1)C(=O)O` [Ceftazidime], the MIC in the experiment on Kp-2H7 (setting [1]) and with Ka-11E12 (setting [2]) was ≤ 1 µg/mL in each case.

`CO[C@@]1(NC(=O)CSC(F)F)C(=O)N2C(C(=O)O)=C(CSc3nnnn3CCO)CO[C@@H]21` [Flomoxef]: the MIC in the experiment with Kp-2H7 (setting [1]) and in the experiment on Ka-11E12 (setting [2]) was ≤ 8 µg/mL in each case.

Consider `C[C@@H]1O[C@@H]1P(=O)(O)O` [Fosfomycin], for which the MIC in the experiment with Kp-2H7 (setting [1]) and in the experiment with Ka-11E12 (setting [2]) was 16 µg/mL throughout.

Take `C[C@H]1COc2c(N3CCN(C)CC3)c(F)cc3c(=O)c(C(=O)O)cn1c23` [Levofloxacin]: the minimum inhibitory concentration (MIC) in the experiment with Kp-2H7 (setting [1]) and in the experiment on Ka-11E12 (setting [2]) was ≤ 1 µg/mL in each case.

On to `C[C@@H](O)[C@H]1C(=O)N2C(C(=O)O)=C(S[C@@H]3CN[C@H](C(=O)N(C)C)C3)[C@H](C)[C@H]12` [Meropenem], for which the MIC with Kp-2H7 (setting [1]) and with Ka-11E12 (setting [2]) was ≤ 0.25 µg/mL in each case.

For `CN(C)c1ccc(O)c2c1C[C@H]1C[C@H]3[C@H](N(C)C)C(O)=C(C(N)=O)C(=O)[C@@]3(O)C(O)=C1C2=O` [Minocycline], the MIC with Kp-2H7 (setting [1]) and in the experiment on Ka-11E12 (setting [2]) was ≤ 2 µg/mL throughout.

`CCN1CCN(C(=O)N[C@@H](C(=O)N[C@@H]2C(=O)N3[C@@H]2SC(C)(C)[C@@H]3C(=O)O)c2ccccc2)C(=O)C1=O` [Piperacillin]: the minimal inhibitory concentration (MIC) with Kp-2H7 (setting [1]) and in the experiment with Ka-11E12 (setting [2]) was ≤ 8 µg/mL in each case.

Consider `Cc1ncc([N+](=O)[O-])n1CCO` [metronidazole], for which the “resistance of Kp-2H7 to antibiotic” value with Kp-2H7 is “resistances”.

Regarding `CN[C@@H]1[C@H](O)[C@H](NC)[C@H]2O[C@@]3(O)C(=O)C[C@@H](C)O[C@H]3O[C@@H]2[C@H]1O` [spectinomycin], the “resistance of Kp-2H7 to antibiotic” value with Kp-2H7 is on record as “resistances”.

`CC[C@H]1OC(=O)C[C@@H](O)[C@H](C)[C@@H](O[C@@H]2O[C@H](C)[C@@H](O[C@H]3C[C@@](C)(O)[C@@H](O)[C@H](C)O3)[C@H](N(C)C)[C@H]2O)[C@@H](CC=O)C[C@@H](C)C(=O)/C=C/C(C)=C/[C@@H]1CO[C@@H]1O[C@H](C)[C@@H](O)[C@@H](OC)[C@H]1OC` [tylosin]: the “resistance of Kp-2H7 to antibiotic” value in the experiment with Kp-2H7 is “resistances”.

In the case of Amoxicillin/Clavulanate, the MIC in the experiment with Kp-2H7 (against Kp-2H7, Table 12) was ≤4 µg/mL; with Ka-11E12, >16 µg/mL.

As for Gentamicin, the MIC is ≤2 µg/mL with Kp-2H7 (against Kp-2H7, Table 12) and ≤2 µg/mL in the experiment on Ka-11E12.

On to Imipenem/Cilastatin, for which the minimum inhibitory concentration (MIC) in the experiment with Kp-2H7 and in the experiment on Ka-11E12 was ≤0.25 µg/mL in each case.

With Sulbactam/Cefoperazone, the MIC with Kp-2H7 (against Kp-2H7, Table 12) was ≤4 µg/mL; in the experiment on Ka-11E12, ≤4 µg/mL.

Consider Sulfamethoxazole-Trimethoprim, for which the minimum inhibitory concentration (MIC) was ≤20 µg/mL with Kp-2H7 (against Kp-2H7, Table 12) and ≤ 20 µg/mL with Ka-11E12.

The values are drawn from US12285475B2, “Bacterium capable of inducing TH1 cells” (priority 2016, dated 2025).
